Measured values reported in patent US20030104079A1, “Skin tissue regeneration promoters comprising ginsenoside Rb1” (Japan Science and Technology Corporation, Japan, priority 2000, published 2003).
“Also recorded” adds a separate entry of the source.

System: open wound of rat skin
Experiment: Open wound healing by external or topical application to skin (propet ointment)
Type: in vivo, rats
Text: For that purpose, for example, by using Wistar male rats (body weight about 300 g), the punch biopsies with diameter 6 mm were made in the dorsal region of animals after shaving under inhalation anesthesia to prepare 3 regions of open wound. Among them, 0.1 g of ophthalmic white Vaseline (Propet) containing 0.01% by weight or 0.001% by weight of ginsenoside Rb1 was spread once for every day in two regions, and in the remaining open wound, the equal amount of ophthalmic white Vaseline (propet) was spread. Nine days after preparing open wound, the skin including wound regions was photographed. Further, we have examined the effects of external or topical cutaneous spread of 0.0001% by weight, 0.00001% by weight or 0.000001% by weight of ginsenoside Rb1 by the same procedure. Experimental animals were euthanized by anesthetia immediately before photographing, then wound regions were dissected out after photographing or after dissecting out wound regions, photographing was performed. Thereafter, the wound region tissues were stored in the fixative. FIG. 5 and FIG. 6 are photographs in place of drawings.
The punch biopsy with diameter 6 mm was performed in the dorsal 6 regions of each animal under inhalation anesthesia to prepare open wound. Thereafter, 0.1 g of propet (ophthalmic white vaseline) containing ginsenoside Rb1 at the concentrations of 0.0001% by weight (10^−4% by weight), 0.00001% by weight (10^−5% by weight), 0.000001% by weight (10^−6% by weight), 0.0000001% by weight (10^−7% by weight) and 0.00000001% by weight (10^−8% by weight), respectively, was applied externally, once a day, for 9 days on each open wound. The equal amount of propet alone was applied externally or topically in the control animals. Then, immediately after euthanasia by anesthetization, the skin containing the open wound was dissected out and photographed. The collected skin tissue was preserved in a fixative. FIG. 12 is a photograph in place of drawing.
In each case, there are three wounds on the left side and three wounds on the right side, totally 6 marks of open wounds.
In the experimental cases hereinbefore explained, an area of open wound (flair region) applied externally only with propet is set as a denominator and an area of open wound administered externally with ginsenoside Rb1 at concentrations from 10^−4% by weight to 10^−8% by weight is set as a numerator, and ratio thereof is calculated. In FIG. 13, n=3 and single asterisk (*) indicates significant difference, P<0.05, and two asterisks (**) indicate significant difference, P<0.01. Statistical test was performed according to Scheffe's post hoc test.
Details of dihydroginsenoside Rb1 is described in the specification of PCT/JP00/04102 (Brain cell or nerve cell protecting agents comprising ginseng). The punch biopsy with diameter 6 mm was performed at 5 places in the dorsal region of rats (n=4) under inhalation anesthesia to prepare open wound. Thereafter, 0.1 g of propet containing dihydroginsenoside Rb1 at concentrations of 0.0001% by weight (10^−4% by weight), 0.00001% by weight (10^−5% by weight), 0.000001% by weight (10^−6% by weight) and 0.0000001% by weight (10^−7% by weight), respectively, was applied topically or externally, once a day, for 9 days onto each open wound. The equal amount of propet alone was applied externally or topically in the control animals. Then, immediately after euthanasia by anesthetization, the skin containing the open wound was dissected out and photographed. The collected skin tissue was preserved in a fixative. FIG. 14 is a photograph in place of drawing. In FIG. 14, four cases are shown, and from the upper column, the first case, the second case, the third case and the fourth case are shown.

CC(C)=CCC[C@](C)(O[C@@H]1O[C@H](CO[C@@H]2O[C@H](CO)[C@@H](O)[C@H](O)[C@H]2O)[C@@H](O)[C@H](O)[C@H]1O)[C@H]1CC[C@]2(C)[C@@H]1[C@H](O)C[C@@H]1[C@@]3(C)CC[C@H](O[C@@H]4O[C@H](CO)[C@@H](O)[C@H](O)[C@H]4O[C@@H]4O[C@H](CO)[C@@H](O)[C@H](O)[C@H]4O)C(C)(C)[C@@H]3CC[C@]12C [ginsenoside Rb1]
open wound reduction (FIG. 13) (0.0000001% by weight (10^−7% by weight) or less, i.e. 1 ng/g or less): reduced significantly the open wound | ratio of open wound area to propet alone (FIG. 13) (10^−4% to 10^−8% by weight, n=3, Scheffe's post hoc test): wound healing was significantly promoted | area of the open wound relative to control (concentrations around 10^−8% by weight): about ¼ | growing hair in regions of wound healing (FIG. 12) (external administration of the low concentrations of ginsenoside Rb1): growing hair was obviously observed | hair restoration or hair growth from regenerated open wound (extracutaneous administration of 0.000001% by weight): obvious hair restoration or hair growth | area of open wound region relative to control (ginsenoside Rb1 at 0.0001%, 0.00001%, 0.000001%, 0.0000001% or 0.00000001% by weight): ½-¼ | volume of the open wound relative to control (low concentrations, worked out from the area reduction): about ⅛ | effectiveness on open wound (FIG. 6) (propet containing 0.00001% or 0.000001% by weight, compared with 0.0001% by weight): superior effectiveness as compared with propet containing 0.0001% by weight | open wound area vs propet alone (FIG. 5) (propet containing 0.001% by weight, 0.1 g once every day, day 9): slightly reduced | open wound vs propet alone control (FIG. 5) (propet containing 0.01% by weight, 0.1 g once every day, day 9): trivial; also recorded: no difference | wound healing vs propet alone (FIG. 12) (propet containing 10^−6% to 10^−8% by weight (10 ng/g to 100 pg/g), once a day for 9 days): wound healing was obviously promoted
